{
  "source": "patent US12042481B2",
  "about": "“Use of (1R,5S)-(+)-1-(naphthalen-2-yl)-3-azabicyclo[3.1.0]hexane in the treatment of conditions affected by monoamine neurotransmitters” (priority 2011, dated 2024)",
  "key": {"[1]": {"molecular_target": "T1, recombinant human 5-HT transporter (Homo sapiens, UniProt P31645)", "T1 construct": "host or cells: HEK-293", "T1 sequence (P31645 whole entry)": "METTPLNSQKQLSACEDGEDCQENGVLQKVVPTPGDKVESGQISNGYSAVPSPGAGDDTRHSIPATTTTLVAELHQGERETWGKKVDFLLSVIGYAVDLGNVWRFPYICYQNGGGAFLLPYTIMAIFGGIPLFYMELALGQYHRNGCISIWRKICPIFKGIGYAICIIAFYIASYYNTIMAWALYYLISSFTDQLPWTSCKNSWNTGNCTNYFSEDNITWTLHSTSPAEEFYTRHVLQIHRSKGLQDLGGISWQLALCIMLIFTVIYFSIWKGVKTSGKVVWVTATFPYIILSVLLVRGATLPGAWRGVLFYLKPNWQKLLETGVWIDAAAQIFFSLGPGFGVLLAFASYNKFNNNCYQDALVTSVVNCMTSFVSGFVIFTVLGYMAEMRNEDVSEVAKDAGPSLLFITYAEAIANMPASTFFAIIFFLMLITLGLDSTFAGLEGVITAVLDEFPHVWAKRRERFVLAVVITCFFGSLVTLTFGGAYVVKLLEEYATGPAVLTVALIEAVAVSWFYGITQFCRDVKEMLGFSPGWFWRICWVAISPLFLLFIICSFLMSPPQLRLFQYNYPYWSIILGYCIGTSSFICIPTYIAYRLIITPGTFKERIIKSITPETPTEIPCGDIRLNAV", "experiment": "Inhibition of [3H]serotonin uptake in HEK-293 cells transfected with the 5-HT uptake transporter", "type": "cell-based", "description": "(§1) The ability of (1R,5S)-(+)-1-(naphthalen-2-yl)-3-azabicyclo[3.1.0]hexane for inhibiting transport of norepinephrine (NE) and/or dopamine (DA) and/or serotonin (5-HT) was evaluated using cell lines (such as the HEK 293 cell line) that stably express recombinant human NE, DA, and 5-HT transporters, respectively. Techniques for stably transfecting mammalian cell lines with neurotransmitter transporters and measuring the effects of drugs on amine uptake have been described in the literature (e.g., Eshleman A J, J Pharmacol Exp Ther 289:877-885, 1999) and are well known to those skilled in the art\n(§2) Monoamine uptake was determined in MDCK, CHO-K1, and HEK-293 cell lines respectively transfected with NE, DA, and 5-HT uptake transporters by MDS Pharma Services (Taipei, Taiwan 112, R. O. C.). The cells were incubated in 5 mM Tris-HCl, and 7.5 mM HEPES buffer, pH 7.1, containing 120 mM NaCl, 5.4 mM KCl, 1.2 mM CaCl2, 1.2 mM MgSO4, 5 mM D-glucose, and 1 mM Ascorbic Acid. The cellular homogenates were incubated with radioligands and various concentrations of drugs for 10 minutes at 25° C. The [^3H]-radioligands incorporated into the cells were determined according to published methods using liquid scintillation counting (Perovic and Müller 1995; Eshleman et al., 1999). […]"}, "[2]": {"tested_on": "male CD-1 (Crl.) derived mice", "experiment": "Mouse spontaneous locomotor activity", "type": "in vivo", "description": "For the locomotor activity determination, male CD-1 (Crl.) derived mice were orally administered (1R,5S)-(+)-1-(naphthalen-2-yl)-3-azabicyclo[3.1.0]hexane as described in Example IV. Locomotor activity for mice in groups of 10 was assessed by placing mice individually into custom built chambers in a quiet isolated 22° C. room (conducted by MDS Pharma Services, Taipei, Taiwan 112, R. O. C.). At 15-minute intervals over 2 hours post-dosing, total travel distances (in cm) for individual animals were recorded using the Etho Vision Pro System (Noldus, USA)."}, "[3]": {"molecular_target": "T2, recombinant human DA transporter (Homo sapiens, UniProt Q01959)", "T2 construct": "host or cells: CHO-K1", "T2 sequence (Q01959 whole entry)": "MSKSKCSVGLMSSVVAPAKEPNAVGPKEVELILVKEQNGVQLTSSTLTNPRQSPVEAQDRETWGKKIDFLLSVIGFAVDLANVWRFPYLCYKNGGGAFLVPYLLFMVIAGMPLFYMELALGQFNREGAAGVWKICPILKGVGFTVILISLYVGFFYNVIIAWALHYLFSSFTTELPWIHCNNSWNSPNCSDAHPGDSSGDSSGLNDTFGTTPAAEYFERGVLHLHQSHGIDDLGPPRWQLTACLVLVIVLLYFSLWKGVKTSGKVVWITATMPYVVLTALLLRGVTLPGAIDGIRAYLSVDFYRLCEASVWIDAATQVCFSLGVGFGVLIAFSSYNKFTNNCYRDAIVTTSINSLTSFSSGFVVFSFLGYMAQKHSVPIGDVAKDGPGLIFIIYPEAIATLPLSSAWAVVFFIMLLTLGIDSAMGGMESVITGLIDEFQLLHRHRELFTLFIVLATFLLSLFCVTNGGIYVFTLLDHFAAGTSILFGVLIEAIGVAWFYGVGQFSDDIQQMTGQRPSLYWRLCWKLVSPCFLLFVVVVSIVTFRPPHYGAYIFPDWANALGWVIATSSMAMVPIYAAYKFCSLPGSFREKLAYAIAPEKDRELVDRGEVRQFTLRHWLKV", "experiment": "Inhibition of [3H]dopamine uptake in CHO-K1 cells transfected with the DA uptake transporter", "type": "cell-based", "description": "as §1, §2"}, "[4]": {"molecular_target": "T3, recombinant human NE transporter (Homo sapiens, UniProt P23975)", "T3 construct": "host or cells: MDCK", "T3 sequence (P23975 whole entry)": "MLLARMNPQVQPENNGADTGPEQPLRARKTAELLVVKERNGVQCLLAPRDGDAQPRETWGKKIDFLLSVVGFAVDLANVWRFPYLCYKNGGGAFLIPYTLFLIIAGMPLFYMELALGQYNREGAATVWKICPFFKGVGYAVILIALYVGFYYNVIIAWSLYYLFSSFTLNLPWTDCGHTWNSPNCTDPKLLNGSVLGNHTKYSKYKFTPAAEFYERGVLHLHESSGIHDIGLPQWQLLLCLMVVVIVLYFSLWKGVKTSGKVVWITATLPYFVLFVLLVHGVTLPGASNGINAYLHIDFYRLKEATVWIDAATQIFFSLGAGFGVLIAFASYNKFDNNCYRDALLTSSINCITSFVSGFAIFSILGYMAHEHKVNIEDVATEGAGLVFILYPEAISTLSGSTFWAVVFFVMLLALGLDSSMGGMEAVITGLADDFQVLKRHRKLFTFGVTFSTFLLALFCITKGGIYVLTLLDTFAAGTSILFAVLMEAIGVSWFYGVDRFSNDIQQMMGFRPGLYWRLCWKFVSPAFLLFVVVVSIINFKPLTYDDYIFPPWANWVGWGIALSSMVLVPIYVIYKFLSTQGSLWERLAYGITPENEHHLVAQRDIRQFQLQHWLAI", "experiment": "Inhibition of [3H]norepinephrine uptake in MDCK cells transfected with the NE uptake transporter", "type": "cell-based", "description": "as §1, §2"}, "[5]": {"tested_on": "6-OHDA-lesioned juvenile rats", "experiment": "Locomotor activity of juvenile rats with neonatal 6-OHDA lesions (model of ADHD)", "type": "in vivo, rat", "description": "The behavioral effects of (1R,5S)-(+)-1-(naphthalen-2-yl)-3-azabicyclo[3.1.0]hexane were evaluated in a model of ADHD, which can be simulated in juvenile rates with neonatal 6-hydroxydopamine (6-OHDA) lesions (Davids et al., 2003). In this animal model, the NE neurons are protected from the neurotoxic effects of 6-OHDA by pretreatment with the NE transporter inhibitor desipramine, so the NE system is largely intact and can respond to NE transporter inhibitors (Davids et al., 2002). Furthermore, the 6-OHDA lesions produce learning and memory deficits in learning models including the T maze, and active and passive avoidance tasks (Shaywitz et al., 1978; Wool et al., 1987; Takasuna and Iwasaki, 1996). Performance in these learning and memory models was improved by administration of stimulants (Shaywitz et al., 1978; Wool et al., 1987). Thus, this model incorporates both hyperactivity and learning deficits found in ADHD.\nMethods of lesioning neonatal rats with 6-OHDA were carried out as detailed in Zhang et al. (2001). Briefly, on postnatal day 1 (PD 1), male Sprague-Dawley rat pups were randomly assigned to a nursing dam (10/dam). On PD 5, pups receive a subcutaneous injection of 25 mg/kg desipramine hydrochloride to protect noradrenergic neurons, followed in 45 min. by randomly assigned intracisternal injection of vehicle or 6-OHDA hydrobromide (100 μg free base) under hypothermic anesthesia. Pups were returned to nursing dams immediately after the intracranial injections. Locomotor activity was monitored individually for 90 min. in the periadolescent period on PD 25, using a microcomputer controlled infrared photobeam activity monitoring system. Locomotor activity was defined as breaking of consecutive photobeams and the activity accumulated in 5 minute bins. Behavioral testing was conducted in a novel environment (transparent plastic cages containing fresh bedding) within a grid of horizontal infrared beams. Each dose of (1R,5S)-(+)-1-(naphthalen-2-yl)-3-azabicyclo[3.1.0]hexane (1, 3 and 10 mg/kg) or methylphenidate (3 mg/kg) was dissolved in saline and given i.p. immediately prior to testing. The effects of sham versus 6-OHDA lesions on dopamine neurons in rats were quantified as decrements of DA transporters labeled with [31-1]2-(3-carbomethoxy-3-β-[4′-iodophenyl]tropane ([^3H]β-CIT), a selective DA transporter radioligand (Kula et al. 1999). Sections were preincubated (60 min., room temp [RT]) in 50 mM Tris-HCl buffer (pH 7.7) containing 120 mM NaCl and 4 mM MgCl2, then in fresh buffer (60 min) containing 2 nM [3H](3-CIT. Nonspecific binding was defined with 1 μM GBR-12909. Slides were then washed (2×5 min) in ice-cold buffer, dipped in ice-cold water, and air-dried. Radiolabeled slides and calibrated [^3H]standards were exposed to [^3H]sensitive films for 10-14 d at 4° C. Tritium-sensitive Hyperfilms were developed and fixed in Kodak D-19 for 5 min. at RT. Images were quantified with a computer-controlled MCID image analyzer. Brain regions of interest were outlined and their optical density was measured with two sections representing total binding, with two samples representing nonspecific binding. Optical density of sampled regions was measured and the amount of ligand bound within each area was calculated as nCi/mg tissue. Mean values of non-specific binding in each region were subtracted from the mean total binding to determine specific binding, which was converted into fmol/mg of radioligand bound."}},
  "note": "Entries after “also recorded” stand apart in the source; their conditions may differ.",
  "data": [
    {"compound": "c1ccc2cc([C@]34CNC[C@H]3C4)ccc2c1", "note": "[(1R,5S)-(+)-1-(naphthalen-2-yl)-3-azabicyclo[3.1.0]hexane]", "values": [
      {"measurement": "IC50", "setting": "[1]", "result": 83, "unit": "nM"},
      {"measurement": "locomotor activity (FIG. 5)", "setting": "[2]; 20, 40 mg/kg p.o., 15 minute epochs, p<0.05 versus vehicle", "result": "decreased locomotor activity at several time points"},
      {"measurement": "spontaneous locomotor activity", "setting": "[2]; oral, distance traveled at 15-minute intervals over 2 hours", "result": "did not significantly increase; also recorded: significantly decrease locomotor activity at several time points"},
      {"measurement": "IC50", "setting": "[3]", "result": 38, "unit": "nM"},
      {"measurement": "IC50", "setting": "[4]", "result": 6, "unit": "nM"},
      {"measurement": "time over which locomotor activity was significantly reduced", "setting": "[5]; 1 mg/kg i.p., PD 25, 90 min test, vs saline", "result": 35, "unit": "min"},
      {"measurement": "time over which locomotor hyperactivity was significantly attenuated", "setting": "[5]; 3 mg/kg i.p., PD 25, 90 min test", "result": 45, "unit": "min"},
      {"measurement": "time over which locomotor activity was significantly reduced", "setting": "[5]; 10 mg/kg i.p., PD 25, 90 min test", "result": 90, "unit": "min"},
      {"measurement": "effect on locomotor hyperactivity", "setting": "[5]; 1, 3 and 10 mg/kg i.p.", "result": "dose-dependently inhibited the locomotor hyperactivity"},
      {"measurement": "locomotor activity (FIGS. 7A and 7B)", "setting": "[5]; 6-OHDA-lesioned juvenile rats at PD25, p<0.05 versus vehicle", "result": "reduced locomotor activity"}
    ]}
  ]
}
